“And” between values parts separate entries of the source, which are not always exact repeats. Equal entries are not always repeated. Where two headings read alike, the source gives them in different places. Blank lines part the entries; values can stand above or below the compound they belong to. Square brackets hold non-standard residues; d marks the D form. Peptide text beside a SMILES is read from it. * marks the point of attachment. DOTA = O=C(O)CN1CCN(CC(=O)O)CCN(CC(=O)*)CCN(CC(=O)O)CC1; Met(O2) = CS(=O)(=O)CC[C@H](N)C(=O)O; 2Thi = N[C@@H](Cc1cccs1)C(=O)O
Assays:
hNK1R = biological target: T1, hNK1R (Homo sapiens, UniProt P25103); test: Saturation binding assay of 177Lu-radioconjugates on CHO-NK1R cells; settings: for Kd: read-out: Kd ± SD
T1 construct: expressed in transfected cells; host or cells: CHO-K1 (hNK1-CHO), gift from Dr. Attila Keresztes and Dr. John M. Streicher
T1 sequence (P25103 whole entry): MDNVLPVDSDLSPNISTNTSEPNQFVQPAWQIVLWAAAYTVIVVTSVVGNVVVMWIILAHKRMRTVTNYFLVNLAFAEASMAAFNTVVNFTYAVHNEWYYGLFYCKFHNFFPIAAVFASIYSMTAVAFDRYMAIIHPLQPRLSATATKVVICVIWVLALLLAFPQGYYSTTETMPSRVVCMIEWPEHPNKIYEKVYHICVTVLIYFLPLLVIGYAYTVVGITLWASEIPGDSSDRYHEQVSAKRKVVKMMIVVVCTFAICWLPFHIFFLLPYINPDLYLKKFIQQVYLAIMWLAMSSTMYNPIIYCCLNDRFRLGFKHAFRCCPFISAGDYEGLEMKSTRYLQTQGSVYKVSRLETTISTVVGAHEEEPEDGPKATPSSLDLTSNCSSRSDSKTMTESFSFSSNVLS
Protocol: The saturation binding studies of ^177Lu-radioconjugates were performed using transfected CHO-NK1R cell line, and all radioconjugates were obtained according to the common labelling protocol given above with the same specific activity. In brief, 10^5 cells per well were seeded into 24-well plates and incubated 24 h before the experiment. […] After that time, the assay medium was collected into plastic tubes and cells were washed twice with cold Dulbecco’s PBS. Subsequently, cells were lysed using 1M NaOH and collected into plastic tubes for radioactivity measurement. The radioactivity of collected medium and lysed cells was measured using a Wizard^2 2-Detector Gamma Counter (PerkinElmer, Waltham, MA, USA) with the energy window of 50–500 keV. The study data came from three independent experiments carried out in duplicate, while the results, presented as the Kd and BMAX with SD, were calculated using a total and nonspecific binding (one site) nonlinear regression curve fit (GraphPad Prism version 8.0, GraphPad, San Diego, CA, USA).

hNK1R Q165A mutant = settings: read-out: IC50 Q165A mutant hNK1R; Gln165Ala mutation; cited from earlier work
hNK1R His197Ala mutation = settings: versus wild type; cited from earlier work
hNK1R His197Phe mutation = settings: versus wild type; cited from earlier work
physchem = format: physicochemical
Protocol: A lipophilicity study was also performed right after the SPE method purification and ethanol evaporation. For each DOTA radioconjugate, the lipophilicity value was estimated as the logarithm of the distribution coefficient (D) based on the ratio of the radioactivity of the organic phase to the radioactivity of the aqueous phase in the n-octanol/PBS (pH 7.40) system. Simultaneously, the stability of the studied radioconjugate during the experiment was verified through the HPLC analysis of the aqueous phase.
A solution of isolated radioconjugate (approximately 0.5 MBq for ^177Lu-radioconjugates or 5 MBq for ^68Ga-radioconjugates) in 500 µL of 0.1 M PBS buffer (pH 7.40) and 500 µL of n-octanol was vigorously stirred and centrifuged (13,500 rpm for 5 min) to separate the immiscible phases. Then, the radioactivity of samples from both phases were measured using a well-type NaI(Tl) detector. The distribution coefficient, D, was calculated dividing the radioactivity of the radioconjugate in the organic phase to that in the aqueous phase. Each experiment was performed in triplicate and averaged. In parallel, the aqueous phases were analysed by HPLC to confirm the stability of studied radioconjugate during the experiment period. The lipophilicity value of each radioconjugates was expressed as the logarithm of its D value.

[1] = pH 7.4, logD7.4 (Mean ± SD) 177Lu-
[2] = pH 7.4, logD7.4 (Mean ± SD) 68Ga-
[3] = ratio to [177Lu]Lu-DOTA-[Thi8,Met(O2)11]SP

Kd (hNK1R): 6.15 ± 0.64 nM
SMILES: CC(C)C[C@H](NC(=O)CNC(=O)[C@H](Cc1cccs1)NC(=O)[C@H](Cc1ccccc1)NC(=O)[C@H](CCC(N)=O)NC(=O)[C@H](CCC(N)=O)NC(=O)[C@@H]1CCCN1C(=O)[C@H](CCCCN)NC(=O)[C@@H]1CCCN1C(=O)[C@H](CCCNC(=N)N)NC(=O)CN1CCN(CC(=O)O)CCN(CC(=O)O)CCN(CC(=O)O)CC1)C(=O)N[C@@H](CCS(C)(=O)=O)C(N)=O [[^177Lu]Lu-DOTA-[Thi^8,Met(O2)^11]SP, metal not drawn, reference compound] ({DOTA}-RPKPQQF[2Thi]GL[Met(O2)]-NH2; N-terminus and C-terminus assumed)

SMILES: CC(=O)N[C@@H](Cc1c[nH]c2ccccc12)C(=O)OCc1cc(C(F)(F)F)cc(C(F)(F)F)c1 [Compound 1c, 3,5-bis(trifluoromethyl)benzyl acetyl-L-tryptophanate]
IC50 (hNK1R Q165A mutant): 8.1 nM
decrease of affinity with His197Ala mutation (hNK1R His197Ala mutation): ten-fold
effect of His197Phe mutation on affinity (hNK1R His197Phe mutation): no effect

SMILES: O=C(O)CN1CCN(CC(=O)O)CCN(CC(=O)NCCCCCC(=O)NCCCCCC(=O)N[C@@H](Cc2c[nH]c3ccccc23)C(=O)OCc2cc(C(F)(F)F)cc(C(F)(F)F)c2)CCN(CC(=O)O)CC1 [[^177Lu]Lu-5d, metal not drawn]
logD (physchem; [1]): 0.294 ± 0.013

SMILES: O=C(O)CN1CCN(CC(=O)O)CCN(CC(=O)NCCCCCC(=O)N[C@@H](Cc2c[nH]c3ccccc23)C(=O)OCc2cc(C(F)(F)F)cc(C(F)(F)F)c2)CCN(CC(=O)O)CC1 [[^68Ga]Ga-4d, metal not drawn]
logD (physchem; [2]): 0.071 ± 0.023

SMILES: O=C(O)CN1CCN(CC(=O)O)CCN(CC(=O)N[C@@H](Cc2c[nH]c3ccccc23)C(=O)OCc2cc(C(F)(F)F)cc(C(F)(F)F)c2)CCN(CC(=O)O)CC1 [[^68Ga]Ga-1d, metal not drawn]
logD (physchem; [2]): -0.085 ± 0.015

BMAX ± SD (hNK1R; CHO-NK1R cells, 60 min at 37 °C): 0.762 nM and 0.762 ± 0.046 nM
Kd (hNK1R; CHO-NK1R cells, 60 min at 37 °C, aprepitant as blocker): 6.98 ± 0.69 nM
BMAX Ratio to SP (hNK1R; [3]): 0.82
Kd Ratio to SP (hNK1R; [3]): 1.13
SMILES: O=C(O)CN1CCN(CC(=O)O)CCN(CC(=O)N[C@@H](Cc2c[nH]c3ccccc23)C(=O)OCc2cc(C(F)(F)F)cc(C(F)(F)F)c2)CCN(CC(=O)O)CC1 [[^177Lu]Lu-1d, metal not drawn]
logD (physchem; [1]): 0.4 ± 0.004
